Legend:
Experiment in all cases: radiometric filter-binding kinase assay, Kinase HotSpot
Conditions in all cases: compound 0.5 µM; ATP 10 µM
RPS6KA5 KD2 (human) = RPS6KA5 KD2 (human) (UniProt O75582)
EPHA4 (human) = EPHA4 (human) (UniProt P54764)
CSNK2A1 (human) = CSNK2A1 (human) (UniProt P68400)
DSTYK (human) = DSTYK (human) (UniProt Q6XUX3)
MAPKAPK2 (human) = MAPKAPK2 (human) (UniProt P49137)
AKT1 (human) = AKT1 (human) (UniProt P31749)
HIPK4 (human) = HIPK4 (human) (UniProt Q8NE63)
STK3 (human) = STK3 (human) (UniProt Q13188)
CAMKK1 (human) = CAMKK1 (human) (UniProt Q8N5S9)
MAP4K2 (human) = MAP4K2 (human) (UniProt Q12851)
PRKD3 (human) = PRKD3 (human) (UniProt O94806)
NEK4 (human) = NEK4 (human) (UniProt P51957)
PDPK1 (human) = PDPK1 (human) (UniProt O15530)
ROCK2 (human) = ROCK2 (human) (UniProt O75116)
FGFR4 (human) = FGFR4 (human) (UniProt P22455)
ULK1 (human) = ULK1 (human) (UniProt O75385)
PIM3 (human) = PIM3 (human) (UniProt Q86V86)
EPHA7 (human) = EPHA7 (human) (UniProt Q15375)
CHEK1 (human) = CHEK1 (human) (UniProt O14757)
BTK (human) = BTK (human) (UniProt Q06187)
PAK1 (human) = PAK1 (human) (UniProt Q13153)
MAP3K5 (human) = MAP3K5 (human) (UniProt Q99683)
STK24 (human) = STK24 (human) (UniProt Q9Y6E0)
OXSR1 (human) = OXSR1 (human) (UniProt O95747)
JAK3 JH1 JH2 (human) = JAK3 JH1 JH2 (human) (UniProt P52333)
FGFR2 (human) = FGFR2 (human) (UniProt P21802)
CDK1 CCNB1 (human) = CDK1 CCNB1 (human) (UniProt P06493+P14635)
HIPK1 (human) = HIPK1 (human) (UniProt Q86Z02)
TAOK3 (human) = TAOK3 (human) (UniProt Q9H2K8)
ROS1 (human) = ROS1 (human) (UniProt P08922)
MAPK1 (human) = MAPK1 (human) (UniProt P28482)
IKBKB (human) = IKBKB (human) (UniProt O14920)
WEE1 (human) = WEE1 (human) (UniProt P30291)
ACVR1 (human) = ACVR1 (human) (UniProt Q04771)
TEK (human) = TEK (human) (UniProt Q02763)
NEK7 (human) = NEK7 (human) (UniProt Q8TDX7)
ZAP70 (human) = ZAP70 (human) (UniProt P43403)
KDR (human) = KDR (human) (UniProt P35968)
TAOK2 (human) = TAOK2 (human) (UniProt Q9UL54)
MST1R (human) = MST1R (human) (UniProt Q04912)
PTK6 (human) = PTK6 (human) (UniProt Q13882)
CLK4 (human) = CLK4 (human) (UniProt Q9HAZ1)

Sequence of MAP4K2 (human) (Q12851 whole entry, looked up): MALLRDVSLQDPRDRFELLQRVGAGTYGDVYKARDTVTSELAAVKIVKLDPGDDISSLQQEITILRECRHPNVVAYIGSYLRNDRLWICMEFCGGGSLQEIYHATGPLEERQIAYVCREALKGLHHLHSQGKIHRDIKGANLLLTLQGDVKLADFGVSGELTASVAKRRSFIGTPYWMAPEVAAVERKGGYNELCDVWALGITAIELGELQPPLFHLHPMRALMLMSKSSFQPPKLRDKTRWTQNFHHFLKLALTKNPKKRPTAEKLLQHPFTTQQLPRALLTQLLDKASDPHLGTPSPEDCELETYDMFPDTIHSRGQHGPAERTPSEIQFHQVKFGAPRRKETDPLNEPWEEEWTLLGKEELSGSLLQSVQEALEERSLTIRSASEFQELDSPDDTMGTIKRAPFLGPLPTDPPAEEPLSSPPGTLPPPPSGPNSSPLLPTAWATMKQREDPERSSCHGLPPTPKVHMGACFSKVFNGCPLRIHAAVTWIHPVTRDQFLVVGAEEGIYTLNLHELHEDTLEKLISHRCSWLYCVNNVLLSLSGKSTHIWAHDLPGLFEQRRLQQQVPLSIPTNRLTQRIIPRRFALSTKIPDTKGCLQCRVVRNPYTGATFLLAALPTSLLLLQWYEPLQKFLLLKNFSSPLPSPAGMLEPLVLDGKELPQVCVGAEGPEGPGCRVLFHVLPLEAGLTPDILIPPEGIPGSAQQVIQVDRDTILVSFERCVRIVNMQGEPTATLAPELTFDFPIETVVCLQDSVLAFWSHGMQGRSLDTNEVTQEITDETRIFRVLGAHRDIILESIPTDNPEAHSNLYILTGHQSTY
Sequence of PTK6 (human) (Q13882 whole entry, looked up): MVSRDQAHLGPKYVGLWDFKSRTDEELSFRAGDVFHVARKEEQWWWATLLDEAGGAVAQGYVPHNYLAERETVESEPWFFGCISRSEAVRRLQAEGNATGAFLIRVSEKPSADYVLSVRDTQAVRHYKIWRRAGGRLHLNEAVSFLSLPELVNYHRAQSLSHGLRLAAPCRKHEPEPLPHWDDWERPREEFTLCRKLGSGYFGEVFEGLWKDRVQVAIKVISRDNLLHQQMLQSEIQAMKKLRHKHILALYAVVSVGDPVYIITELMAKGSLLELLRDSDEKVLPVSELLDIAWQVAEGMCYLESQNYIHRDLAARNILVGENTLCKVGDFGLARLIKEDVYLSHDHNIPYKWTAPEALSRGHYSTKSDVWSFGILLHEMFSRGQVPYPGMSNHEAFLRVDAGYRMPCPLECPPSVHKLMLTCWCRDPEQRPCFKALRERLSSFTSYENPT
Sequence of OXSR1 (human) (O95747 whole entry, looked up): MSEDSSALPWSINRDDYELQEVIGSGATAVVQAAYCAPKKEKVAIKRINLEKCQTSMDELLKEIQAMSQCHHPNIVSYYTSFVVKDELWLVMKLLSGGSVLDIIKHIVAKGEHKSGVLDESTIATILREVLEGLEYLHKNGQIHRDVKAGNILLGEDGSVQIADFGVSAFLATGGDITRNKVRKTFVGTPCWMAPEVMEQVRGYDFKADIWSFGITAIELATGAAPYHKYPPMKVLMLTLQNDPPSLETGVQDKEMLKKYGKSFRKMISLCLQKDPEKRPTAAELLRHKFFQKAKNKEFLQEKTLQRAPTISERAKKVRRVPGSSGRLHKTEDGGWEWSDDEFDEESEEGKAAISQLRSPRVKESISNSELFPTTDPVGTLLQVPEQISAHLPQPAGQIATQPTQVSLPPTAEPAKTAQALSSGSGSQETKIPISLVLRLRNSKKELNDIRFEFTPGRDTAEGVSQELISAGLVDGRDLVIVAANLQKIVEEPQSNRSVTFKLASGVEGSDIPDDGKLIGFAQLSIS
Sequence of RPS6KA5 KD2 (human) (O75582 whole entry, looked up): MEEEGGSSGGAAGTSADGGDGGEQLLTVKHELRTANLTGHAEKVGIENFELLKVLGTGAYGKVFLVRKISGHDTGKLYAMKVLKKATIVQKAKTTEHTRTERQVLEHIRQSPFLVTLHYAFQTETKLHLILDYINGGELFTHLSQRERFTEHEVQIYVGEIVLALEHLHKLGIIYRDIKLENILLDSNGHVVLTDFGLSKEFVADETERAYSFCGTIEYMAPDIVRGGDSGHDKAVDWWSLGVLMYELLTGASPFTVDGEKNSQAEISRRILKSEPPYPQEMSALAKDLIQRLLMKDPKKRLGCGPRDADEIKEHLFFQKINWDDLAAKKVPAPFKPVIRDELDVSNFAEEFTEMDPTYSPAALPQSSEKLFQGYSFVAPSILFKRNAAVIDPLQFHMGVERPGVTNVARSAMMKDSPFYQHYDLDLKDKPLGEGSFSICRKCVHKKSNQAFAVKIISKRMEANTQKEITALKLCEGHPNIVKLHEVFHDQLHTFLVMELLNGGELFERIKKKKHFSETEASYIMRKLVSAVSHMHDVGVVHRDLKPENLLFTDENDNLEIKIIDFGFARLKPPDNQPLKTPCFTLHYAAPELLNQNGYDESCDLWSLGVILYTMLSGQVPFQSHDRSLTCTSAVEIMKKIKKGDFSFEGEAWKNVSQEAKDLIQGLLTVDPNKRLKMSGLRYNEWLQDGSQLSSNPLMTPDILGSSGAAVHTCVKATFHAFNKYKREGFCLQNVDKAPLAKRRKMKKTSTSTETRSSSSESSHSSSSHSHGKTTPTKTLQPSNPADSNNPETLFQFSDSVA
Sequence of NEK4 (human) (P51957 whole entry, looked up): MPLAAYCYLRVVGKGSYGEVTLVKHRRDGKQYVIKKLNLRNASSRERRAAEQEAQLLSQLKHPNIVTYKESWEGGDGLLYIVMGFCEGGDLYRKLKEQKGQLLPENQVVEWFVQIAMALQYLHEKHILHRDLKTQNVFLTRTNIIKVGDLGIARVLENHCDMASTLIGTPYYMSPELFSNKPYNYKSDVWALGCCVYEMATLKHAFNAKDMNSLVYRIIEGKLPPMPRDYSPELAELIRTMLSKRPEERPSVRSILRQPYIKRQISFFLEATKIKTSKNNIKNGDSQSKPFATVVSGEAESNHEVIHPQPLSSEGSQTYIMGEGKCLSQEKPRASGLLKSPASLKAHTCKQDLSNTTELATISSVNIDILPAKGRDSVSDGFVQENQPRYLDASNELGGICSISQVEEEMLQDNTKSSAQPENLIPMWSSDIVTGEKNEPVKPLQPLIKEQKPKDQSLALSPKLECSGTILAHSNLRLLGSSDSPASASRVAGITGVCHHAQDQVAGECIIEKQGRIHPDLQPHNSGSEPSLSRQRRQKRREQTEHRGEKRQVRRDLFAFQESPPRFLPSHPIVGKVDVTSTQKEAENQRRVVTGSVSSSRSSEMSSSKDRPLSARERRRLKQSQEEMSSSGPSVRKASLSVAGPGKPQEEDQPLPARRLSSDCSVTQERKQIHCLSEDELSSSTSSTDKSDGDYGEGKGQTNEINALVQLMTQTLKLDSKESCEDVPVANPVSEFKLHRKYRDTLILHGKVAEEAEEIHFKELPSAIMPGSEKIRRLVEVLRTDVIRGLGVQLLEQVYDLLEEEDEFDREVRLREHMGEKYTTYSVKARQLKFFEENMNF
Sequence of WEE1 (human) (P30291 whole entry, looked up): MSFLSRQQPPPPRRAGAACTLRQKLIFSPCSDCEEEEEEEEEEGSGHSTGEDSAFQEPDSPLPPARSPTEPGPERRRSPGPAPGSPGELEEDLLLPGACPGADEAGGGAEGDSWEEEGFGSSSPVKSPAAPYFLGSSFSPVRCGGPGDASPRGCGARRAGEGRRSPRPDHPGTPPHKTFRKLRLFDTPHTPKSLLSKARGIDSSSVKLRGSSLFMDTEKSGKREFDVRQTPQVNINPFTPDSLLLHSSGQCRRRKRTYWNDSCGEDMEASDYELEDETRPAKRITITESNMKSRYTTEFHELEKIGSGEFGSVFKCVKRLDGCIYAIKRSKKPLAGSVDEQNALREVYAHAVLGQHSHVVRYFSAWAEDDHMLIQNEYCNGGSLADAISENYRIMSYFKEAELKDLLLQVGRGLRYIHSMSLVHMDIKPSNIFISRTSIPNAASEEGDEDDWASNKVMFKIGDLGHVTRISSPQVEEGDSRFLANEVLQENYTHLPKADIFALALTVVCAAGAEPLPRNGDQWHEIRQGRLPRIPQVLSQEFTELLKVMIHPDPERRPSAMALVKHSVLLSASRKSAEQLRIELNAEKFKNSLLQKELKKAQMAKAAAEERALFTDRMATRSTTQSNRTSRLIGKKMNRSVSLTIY
Sequence of NEK7 (human) (Q8TDX7 whole entry, looked up): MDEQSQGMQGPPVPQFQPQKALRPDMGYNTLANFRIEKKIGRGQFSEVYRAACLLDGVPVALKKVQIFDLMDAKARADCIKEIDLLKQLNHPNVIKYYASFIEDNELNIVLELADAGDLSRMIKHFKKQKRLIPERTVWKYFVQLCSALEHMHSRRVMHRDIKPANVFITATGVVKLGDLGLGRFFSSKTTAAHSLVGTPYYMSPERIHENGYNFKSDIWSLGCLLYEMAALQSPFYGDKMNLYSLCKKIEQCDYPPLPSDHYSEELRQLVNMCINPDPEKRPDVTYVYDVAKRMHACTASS
Sequence of CAMKK1 (human) (Q8N5S9 whole entry, looked up): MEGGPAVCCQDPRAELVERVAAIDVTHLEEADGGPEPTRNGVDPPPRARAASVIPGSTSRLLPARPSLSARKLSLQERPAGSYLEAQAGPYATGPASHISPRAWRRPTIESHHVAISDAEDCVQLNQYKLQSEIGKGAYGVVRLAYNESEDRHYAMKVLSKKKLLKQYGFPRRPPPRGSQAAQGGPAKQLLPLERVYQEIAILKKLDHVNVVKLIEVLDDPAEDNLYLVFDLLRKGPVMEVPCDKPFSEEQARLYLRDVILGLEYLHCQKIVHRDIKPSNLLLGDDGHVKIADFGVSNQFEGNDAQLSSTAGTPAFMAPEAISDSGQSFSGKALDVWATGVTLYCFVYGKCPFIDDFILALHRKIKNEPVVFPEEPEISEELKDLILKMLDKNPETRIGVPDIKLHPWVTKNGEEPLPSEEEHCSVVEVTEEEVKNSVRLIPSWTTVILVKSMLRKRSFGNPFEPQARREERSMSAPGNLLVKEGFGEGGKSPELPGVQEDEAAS

NC(=O)c1ccc(N(C(N)=O)c2c(F)cccc2F)nc1-c1ccc(F)cc1F
residual activity (RPS6KA5 KD2 (human)): 92.8% | residual activity (EPHA4 (human)): 105% | residual activity (CSNK2A1 (human)): 111% | residual activity (DSTYK (human)): 101% | residual activity (MAPKAPK2 (human)): 98.9% | residual activity (AKT1 (human)): 84.7% | residual activity (HIPK4 (human)): 90.5% | residual activity (STK3 (human)): 94.1% | residual activity (CAMKK1 (human)): 98.9% | residual activity (MAP4K2 (human)): 108% | residual activity (PRKD3 (human)): 85.1% | residual activity (NEK4 (human)): 104% | residual activity (PDPK1 (human)): 87.4% | residual activity (ROCK2 (human)): 97.7% | residual activity (FGFR4 (human)): 96.2% | residual activity (ULK1 (human)): 104% | residual activity (PIM3 (human)): 97.7% | residual activity (EPHA7 (human)): 79.9% | residual activity (CHEK1 (human)): 89.2% | residual activity (BTK (human)): 98.2% | residual activity (PAK1 (human)): 110% | residual activity (MAP3K5 (human)): 102% | residual activity (STK24 (human)): 105% | residual activity (OXSR1 (human)): 96.9% | residual activity (JAK3 JH1 JH2 (human)): 95.7% | residual activity (FGFR2 (human)): 99.5% | residual activity (CDK1 CCNB1 (human)): 95.7% | residual activity (HIPK1 (human)): 100% | residual activity (TAOK3 (human)): 95.7% | residual activity (ROS1 (human)): 95% | residual activity (MAPK1 (human)): 85.7% | residual activity (IKBKB (human)): 94.8% | residual activity (WEE1 (human)): 101% | residual activity (ACVR1 (human)): 105% | residual activity (TEK (human)): 96.7% | residual activity (NEK7 (human)): 90.1% | residual activity (ZAP70 (human)): 100% | residual activity (KDR (human)): 96.5% | residual activity (TAOK2 (human)): 98.7% | residual activity (MST1R (human)): 90.1% | residual activity (PTK6 (human)): 98.7% | residual activity (CLK4 (human)): 114%

O=C1Nc2ccccc2/C1=C\c1c(Cl)[nH]c2ccccc12
residual activity (RPS6KA5 KD2 (human)): 85.5% | residual activity (EPHA4 (human)): 93.4% | residual activity (CSNK2A1 (human)): 89.4% | residual activity (DSTYK (human)): 95.7% | residual activity (MAPKAPK2 (human)): 101% | residual activity (AKT1 (human)): 94% | residual activity (HIPK4 (human)): 98.8% | residual activity (STK3 (human)): 89.1% | residual activity (CAMKK1 (human)): 116% | residual activity (MAP4K2 (human)): 97.9% | residual activity (PRKD3 (human)): 87.7% | residual activity (NEK4 (human)): 97.7% | residual activity (PDPK1 (human)): 94.3% | residual activity (ROCK2 (human)): 90.2% | residual activity (FGFR4 (human)): 96.9% | residual activity (ULK1 (human)): 106% | residual activity (PIM3 (human)): 100% | residual activity (EPHA7 (human)): 95.3% | residual activity (CHEK1 (human)): 93.7% | residual activity (BTK (human)): 94.6% | residual activity (PAK1 (human)): 92.8% | residual activity (MAP3K5 (human)): 107% | residual activity (STK24 (human)): 81.5% | residual activity (OXSR1 (human)): 89.1% | residual activity (JAK3 JH1 JH2 (human)): 102% | residual activity (FGFR2 (human)): 102% | residual activity (CDK1 CCNB1 (human)): 94.3% | residual activity (HIPK1 (human)): 100% | residual activity (TAOK3 (human)): 93.9% | residual activity (ROS1 (human)): 109% | residual activity (MAPK1 (human)): 96.4% | residual activity (IKBKB (human)): 106% | residual activity (WEE1 (human)): 107% | residual activity (ACVR1 (human)): 100% | residual activity (TEK (human)): 97.1% | residual activity (NEK7 (human)): 97.6% | residual activity (ZAP70 (human)): 106% | residual activity (KDR (human)): 96.3% | residual activity (TAOK2 (human)): 104% | residual activity (MST1R (human)): 97.5% | residual activity (PTK6 (human)): 76.9% | residual activity (CLK4 (human)): 105%

O=C1Nc2cc(Br)ccc2/C1=C1/Nc2ccccc2/C1=N\O
residual activity (RPS6KA5 KD2 (human)): 82.6% | residual activity (EPHA4 (human)): 90.2% | residual activity (CSNK2A1 (human)): 82.2% | residual activity (DSTYK (human)): 102% | residual activity (MAPKAPK2 (human)): 86.9% | residual activity (AKT1 (human)): 97.7% | residual activity (HIPK4 (human)): 106% | residual activity (STK3 (human)): 20.5% | residual activity (CAMKK1 (human)): 50.5% | residual activity (MAP4K2 (human)): 61.5% | residual activity (PRKD3 (human)): 87.8% | residual activity (NEK4 (human)): 96.7% | residual activity (PDPK1 (human)): 86.4% | residual activity (ROCK2 (human)): 92.1% | residual activity (FGFR4 (human)): 79.6% | residual activity (ULK1 (human)): 95.3% | residual activity (PIM3 (human)): 73.2% | residual activity (EPHA7 (human)): 81.4% | residual activity (CHEK1 (human)): 57.1% | residual activity (BTK (human)): 13.1% | residual activity (PAK1 (human)): 89.8% | residual activity (MAP3K5 (human)): 91.6% | residual activity (STK24 (human)): 90.9% | residual activity (OXSR1 (human)): 100% | residual activity (JAK3 JH1 JH2 (human)): 53.3% | residual activity (FGFR2 (human)): 59.2% | residual activity (CDK1 CCNB1 (human)): 50.5% | residual activity (HIPK1 (human)): 103% | residual activity (TAOK3 (human)): 56.9% | residual activity (ROS1 (human)): 82% | residual activity (MAPK1 (human)): 113% | residual activity (IKBKB (human)): 85.4% | residual activity (WEE1 (human)): 96% | residual activity (ACVR1 (human)): 114% | residual activity (TEK (human)): 96.7% | residual activity (NEK7 (human)): 103% | residual activity (ZAP70 (human)): 107% | residual activity (KDR (human)): 64.2% | residual activity (TAOK2 (human)): 92.1% | residual activity (MST1R (human)): 98.7% | residual activity (PTK6 (human)): 89.3% | residual activity (CLK4 (human)): 97%

Oc1ccc(-c2nc(-c3ccc(F)cc3)c(-c3ccncc3)[nH]2)cc1
residual activity (RPS6KA5 KD2 (human)): 107% | residual activity (EPHA4 (human)): 96.2% | residual activity (CSNK2A1 (human)): 92.4% | residual activity (DSTYK (human)): 100% | residual activity (MAPKAPK2 (human)): 99.2% | residual activity (AKT1 (human)): 101% | residual activity (HIPK4 (human)): 89.7% | residual activity (STK3 (human)): 105% | residual activity (CAMKK1 (human)): 123% | residual activity (MAP4K2 (human)): 101% | residual activity (PRKD3 (human)): 69.8% | residual activity (NEK4 (human)): 94% | residual activity (PDPK1 (human)): 98.2% | residual activity (ROCK2 (human)): 93.6% | residual activity (FGFR4 (human)): 92.9% | residual activity (ULK1 (human)): 89% | residual activity (PIM3 (human)): 98.7% | residual activity (EPHA7 (human)): 86.1% | residual activity (CHEK1 (human)): 98.9% | residual activity (BTK (human)): 101% | residual activity (PAK1 (human)): 97.3% | residual activity (MAP3K5 (human)): 105% | residual activity (STK24 (human)): 95.2% | residual activity (OXSR1 (human)): 97.6% | residual activity (JAK3 JH1 JH2 (human)): 95.8% | residual activity (FGFR2 (human)): 103% | residual activity (CDK1 CCNB1 (human)): 99% | residual activity (HIPK1 (human)): 98.2% | residual activity (TAOK3 (human)): 103% | residual activity (ROS1 (human)): 89.8% | residual activity (MAPK1 (human)): 97.2% | residual activity (IKBKB (human)): 110% | residual activity (WEE1 (human)): 94.9% | residual activity (ACVR1 (human)): 106% | residual activity (TEK (human)): 99.6% | residual activity (NEK7 (human)): 103% | residual activity (ZAP70 (human)): 100% | residual activity (KDR (human)): 99.9% | residual activity (TAOK2 (human)): 94.7% | residual activity (MST1R (human)): 102% | residual activity (PTK6 (human)): 50.3% | residual activity (CLK4 (human)): 106%

— the kinase profiling compilation of Christmann-Franck et al. (2016)
